Data: patent US20210247400A1, “ACTIVATION OF PATTERN-TRIGGERED IMMUNITY IN PLANTS BY LIPOOLIGOSACCHARID-SPECIFIC REDUCED ELICITATION (LORE) AND VARIANTS THEREOF” (Technische Universität München, priority 2018, published 2021)

Legend:
[1] = molecular target: T1, LORE (Arabidopsis thaliana, UniProt O64782); test: Aequorin luminescence measurements of [Ca^2+]cyt elevations in Arabidopsis seedlings; type: cell-based; conditions: for elicitor activity ([Ca^2+]cyt response): 5 μM, Col-0^AEQ or lore-1 seedlings, FIG. 2H-J
T1 construct: aequorin-expressing wild-type (Col-0^AEQ) or lore-1 mutant seedlings; endogenous in cells; host or cells: Arabidopsis thaliana Col-0 / Col-0^AEQ seedlings and leaf discs
T1 sequence (O64782 22-805): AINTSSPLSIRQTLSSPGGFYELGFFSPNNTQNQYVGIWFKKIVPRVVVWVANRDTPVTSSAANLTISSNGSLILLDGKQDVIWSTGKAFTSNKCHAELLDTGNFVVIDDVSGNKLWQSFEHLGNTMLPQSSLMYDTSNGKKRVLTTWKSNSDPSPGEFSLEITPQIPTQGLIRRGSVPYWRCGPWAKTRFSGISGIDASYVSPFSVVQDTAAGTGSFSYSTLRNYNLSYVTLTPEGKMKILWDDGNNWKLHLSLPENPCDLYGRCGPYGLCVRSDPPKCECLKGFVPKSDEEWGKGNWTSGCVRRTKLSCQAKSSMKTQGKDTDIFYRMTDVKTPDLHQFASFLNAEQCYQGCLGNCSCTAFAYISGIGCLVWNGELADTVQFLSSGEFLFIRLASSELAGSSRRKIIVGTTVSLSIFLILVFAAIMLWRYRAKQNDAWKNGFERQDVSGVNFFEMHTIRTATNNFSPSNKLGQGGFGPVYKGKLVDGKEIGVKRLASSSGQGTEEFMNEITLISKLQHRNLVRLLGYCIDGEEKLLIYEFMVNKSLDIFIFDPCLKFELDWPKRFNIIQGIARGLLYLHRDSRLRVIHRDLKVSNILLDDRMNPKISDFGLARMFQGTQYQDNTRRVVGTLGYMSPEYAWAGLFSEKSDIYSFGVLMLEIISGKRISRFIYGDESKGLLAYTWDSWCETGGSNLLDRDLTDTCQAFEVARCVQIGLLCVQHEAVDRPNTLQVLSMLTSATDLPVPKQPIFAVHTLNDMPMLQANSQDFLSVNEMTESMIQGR
Protocol: Aequorin luminescence measurements were performed essentially as described (Ranf et al., 2012). In short, 8- to 10-days-old liquid-grown apoaequorin-expressing seedlings were placed individually in 96-well plates in MP-dH2O containing 5-10 μM coelenterazine-h (p.j.k. GmbH) in the dark overnight. Luminescence was recorded by scanning 2 rows in 10 sec intervals using a Luminoskan Ascent 2.1 (Thermo Scientific). Remaining aequorin was discharged by addition of 150 μl 2 M CaCl2) with 20% EtOH per well. [Ca^2+]cyt concentrations were calculated as L/Lmax (luminescence counts per sec/total luminescence counts remaining).

[2] = system: AtMPK3 and AtMPK6; test: Immunoblot analysis of MAPK activation; type: cell-based, Arabidopsis thaliana; conditions: 5 μM, seedlings, FIG. 1H
Protocol: MAPK activation was elicited in 14-days-old liquid-grown seedlings as described (Ranf et al., 2015) by adding MAMPs to the final concentrations indicated. […] Proteins were extracted in kinase extraction buffer containing 50 mM Tris/HCl pH 7.5, 100 mM NaCl, 20 mM EGTA, 30 mM beta-glycerophosphate, 30 mM 4-p-Nitrophenylphosphate, 4 mM NaF, 4 mM Na3VO4, 4 mM Na2MoO4, 10 mM DTT, 0.2% Tween 20, and 1× plant protease inhibitor cocktail P9599 (Sigma-Aldrich). […] total protein (according to Bradford Protein Assay, Bio-Rad) was separated by standard SDS polyacrylamide gel-electrophoresis (Mini-PROTEAN Tetra Cell, Bio-Rad) and blotted onto nitrocellulose membrane (Amersham™ Protran™ 0.2 μm NC, GE Healthcare) using a Trans-Blot® SD Semi-Dry Transfer Cell (Bio-Rad). Membranes were blocked in Protein-Free TBS Blocking Buffer (Pierce™) and immunostained with anti-phospho-MPK antibody (anti-phospho-p44/42-ERK, 1:1000, Cell Signaling Technology #9101) and anti-rabbit-IgG-peroxidase conjugate (A9169, 1:50000, Sigma-Aldrich) using SuperSignal™ West Dura Extended Duration Substrate (Thermo Scientific). ECL chemiluminescence was detected using a Fusion SL camera (Vilber Lourmat). Membranes were stained with Amido black to assess equal protein loading.

[3] = system: Pst DC3000; test: Induced resistance assay in Arabidopsis plants; type: in vivo, Pseudomonas syringae pv. tomato; conditions: FIG. 1J
Protocol: After two or three days Pst DC3000 was syringe infiltrated into leaves 4 and 5 of the pretreated plants at 1×10^5 CFU/ml. Bacterial growth in infected leaves was determined 4 days later as described (Vlot et al., 2008). Statistical analysis (one-way analysis of variance, ANOVA, with Tukey's multiple comparison post-test) was applied separately for wild type and mutant plants using GraphPad Prism 7.0.

[4] = system: AtFRK1 and AtNHL10; test: Gene expression analysis (quantitative PCR of defence genes); conditions: 1 μM, four hours after elicitation, seedlings, FIG. 1G
[5] = molecular target: T1, LORE; test: PTI in Arabidopsis (biological assays, LORE dependence); type: cell-based; conditions: for elicitor activity / PTI responses / early PTI signalling reactions: 5 μM, [Ca^2+]cyt and ROS; for elicitor activity: FIG. 3B-E, FIG. 6B; for PTI responses ([Ca^2+]cyt signalling, ROS production, defence gene induction, MAPK activation; ROS in LORE-GFP-expressing N. benthamiana): FAs 1-5 μM, compared to mc-3-OH-FAs, FIG. 2A-G; for PTI responses: FIG. 3A,B; for early PTI signalling reactions: short-term exposure, FIG. 4D-E
[6] = molecular target: T1, LORE; test: ROS detection in Arabidopsis leaves (leaf discs); type: cell-based; conditions: 5 μM, leaf discs Col-0 or lore-5, FIG. 2D
Protocol: ROS production was monitored as described (Ranf et al., 2015) in 3 mm leaf discs from 6-8 weeks-old soil-grown plants in 100 μl 5 μM L-012 (WAKO chemicals) and 2 μg/ml horseradish peroxidase (Type II, Roche) in MP-dH2O. For experiments including 4-OH-10:0 (19) and 5-OH-10:0 (20), 10 mM Tris pH 8 was added to the L-012/HRP mix. Luminescence was recorded as relative light units (RLU) in 1 min intervals using a Luminoskan Ascent 2.1 (Thermo Scientific) or a Tecan F200. After 10 min background reading, elicitors were added to the final concentrations indicated and luminescence readings continued over 45-60 min. Data are depicted after normalization to average ROS levels 5 min before elicitor application and subtraction of water or MeOH controls that were included for each genotype on the same plate.

[7] = wild-type Arabidopsis plants pre-treated with 10 μM, titre at 4 dpi
[8] = sample conc. used for biological assays 1 μM-5 μM (mostly)
[9] = sample conc. used for biological assays 5 μM

Structure (SMILES): CCCCCCCC(O)CC(=O)O (racemic) [Compound 1, 3-hydroxydecanoic acid]
- [Ca^2+]cyt elevations ([1]; Col-0^AEQ seedlings, different concentrations (nanomolar to micromolar range), FIG. 1C): sufficient to elicit [Ca^2+]cyt elevations
- phosphorylation of AtMPK3 and AtMPK6 [2]: phosphorylation of mitogen-activated protein kinases (MAPK), AtMPK3 and AtMPK6
- systemic resistance to infection with Pst DC3000 ([3]; lore-1 mutant plants pre-treated with 10 μM): systemic resistance was not activated
- systemic resistance to infection with Pst DC3000 [3, 7]: more resistant to subsequent infection with virulent Pst DC3000
- transcript accumulation of PTI response genes AtFRK1 and AtNHL10 [4]: induced transcript accumulation
- elicitor activity [5]: strongest elicitor activity
- LORE-dependent [5, 8]: Yes
- PTI in Arabidopsis [5, 8]: Yes
- LORE-dependent [5, 9]: Yes
- PTI in Arabidopsis [5, 9]: Yes
- [Ca^2+]cyt or ROS signals ([5]; subsequent application after mc-3-OH-FA-depleted LPS, FIG. 4A-C, FIG. 5): typical [Ca^2+]cyt or ROS signals were induced

Structure (SMILES): CCCCCCCCCCCC(O)CC(=O)O (racemic) [Compound 7, 3-hydroxytetradecanoic acid]
- systemic resistance to infection with Pst DC3000 [3, 7]: did not establish systemic resistance to bacterial infection
- PTI signalling ([5]; FIG. 1D-H): did not induce PTI signalling

Structure (SMILES): CCCCCCCCCC(=O)NC1CCOC1=O (racemic) [Compound 43, N-Decanoyl-DL- homoserine lactone]
- PTI in Arabidopsis [5, 9]: No

Structure (SMILES): CCCCCCC/C=C\C(=O)O [Compound 17, (Z)-dec-2-enoic acid]
- PTI responses ([Ca^2+]cyt signalling, ROS production, defence gene induction, MAPK activation; ROS in LORE-GFP-expressing N. benthamiana) [5]: weak and independent of LORE

Structure (SMILES): CCCCCCC/C=C/C(=O)O [Compound 18, (E)-dec-2-enoic acid]
- PTI responses ([Ca^2+]cyt signalling, ROS production, defence gene induction, MAPK activation; ROS in LORE-GFP-expressing N. benthamiana) [5]: weak and independent of LORE

Structure (SMILES): CCCCCCC(O)CCC(=O)O (stereo not drawn) [Compound 19, 4-hydroxydecanoic acid]
- LORE-dependent ROS production [6]: did not elicit LORE-dependent ROS production

Structure (SMILES): CCCCCC(O)CCCC(=O)O (stereo not drawn) [Compound 20, 5-hydroxydecanoic acid]
- LORE-dependent ROS production [6]: did not elicit LORE-dependent ROS production

Structure (SMILES): CCCCCCCC(Cl)CC(=O)OC (stereo not drawn) [Compound 22, methyl 3-chlorodecanoate]
- elicitor activity ([Ca^2+]cyt response) [1]: abolished elicitor activity

Structure (SMILES): CCCCCCCC(=O)CC(=O)O [Compound 23, 3-oxodecanoic acid]
- elicitor activity ([Ca^2+]cyt response) [1]: induced a moderate LORE-dependent [Ca^2+]cyt response

Structure (SMILES): CCCCCCCC(CC(=O)O)OC (stereo not drawn) [Compound 24, 3-methoxydecanoic acid]
- elicitor activity ([Ca^2+]cyt response) [1]: abolished elicitor activity

Structure (SMILES): CCCCCCCC(CC(=O)O)OC(C)=O (stereo not drawn) [Compound 25, 3-acetoxydecanoic acid]
- elicitor activity ([Ca^2+]cyt response) [1]: abolished elicitor activity

Structure (SMILES): CCCCCCCC(O)CC (stereo not drawn) [Compound 27, decan-3-ol]
- PTI responses [5]: neither 3-decanol nor 1,3-decandiol elicited PTI responses

Structure (SMILES): CCCCCCCC(O)CCO (stereo not drawn) [Compound 28, decane-1,3-diol]
- PTI responses [5]: neither 3-decanol nor 1,3-decandiol elicited PTI responses

Structure (SMILES): CCCCCCCC(O)CC(=O)OC(C)(C)C (stereo not drawn) [Compound 30, tert-butyl-3-hydroxydecanoate]
- elicitor activity [5]: inactive

Structure (SMILES): CCCCCCCC(O)CC(=O)N[C@H]1CCOC1=O (stereo partly drawn) [Compound 41, N-(3-Hydroxydecanoyl)-L-homoserine lactone]
- early PTI signalling reactions [5]: did not elicit significant early PTI signalling reactions
- PTI in Arabidopsis [5, 9]: No

Structure (SMILES): CCCCCCCC(=O)CC(=O)N[C@H]1CCOC1=O [Compound 42, N-(3-Oxodecanoyl)-L-homoserine lactone]
- early PTI signalling reactions [5]: did not elicit significant early PTI signalling reactions
- PTI in Arabidopsis [5, 9]: No

Structure (SMILES): CCCCCCC[C@@H](O)CC(=O)O [Compound 44, (R)-3-hydroxydecanoic acid]
- immune signalling ([Ca^2+]cyt elevations) ([1]; different concentrations, Arabidopsis seedlings, FIG. 6A): induced stronger immune signalling than (S)-3-OH—C10:0 (45)
